Test results taken from patent publication US6458950B1, “Compounds and pharmaceutical compositions containing the same” (Shionogi & Co., Ltd., priority 1997, dated 2002).
Values after ≈ are worked out from the molar mass of the structure shown.

Key:
S.pneumoniae Type I = experiment: Treating effect on infections in mouse; format: in vivo; conditions: Streptococcus pneumoniae, S.pneumoniae Type I infection
P.aeruginosa E-2 = experiment: Treating effect on infections in mouse; format: in vivo; conditions: Pseudomonas aeruginosa, E2, P.aeruginosa E-2 infection
S. agalactiae ATCC13813 = experiment: MIC by agar dilution method; format: cell-based; conditions: Streptococcus agalactiae, inoculation amount 10^6 CFU/ml
Procedure: (§1) The minimal inhibitory concentration (MIC) was determined by an agar dilution method. That is, 1.0 ml each of an aqueous solution of a test compound diluted in series was poured into a petri dish. Trypticase soy agar (9 ml) was poured into the solution, and mixed. A suspension (about 10^6 CFU/ml) of test bacteria was smeared on the mixed agar plate.
(§2) Gram-positive bacteria; S. pyogenes C-203, S. agalactiae ATCC13813, S. pneumoniae Type I, S. pneumoniae SR16675(PC-R), S. mitis ATCC9811 Gram-negative bacteria: K. pneumoniae SR1, P. mirabilis PR-4 and P. vulgaris CN-329

S. pyogenes C-203 = experiment: MIC by agar dilution method; format: cell-based; conditions: Streptococcus pyogenes, C203, inoculation amount 10^6 CFU/ml
Procedure: as §1, §2

[1] = test system: S. pneumoniae SR16675(PC-R); experiment: MIC by agar dilution method; format: cell-based; conditions: Streptococcus pneumoniae, inoculation amount 10^6 CFU/ml
Procedure: as §1, §2

P. mirabilis PR-4 = experiment: MIC by agar dilution method; format: cell-based; conditions: Proteus mirabilis, PR4, inoculation amount 10^6 CFU/ml
Procedure: as §1, §2

P. vulgaris CN-329 = experiment: MIC by agar dilution method; format: cell-based; conditions: Proteus vulgaris, CN329, inoculation amount 10^6 CFU/ml
Procedure: as §1, §2

S. mitis ATCC9811 = experiment: MIC by agar dilution method; format: cell-based; conditions: Streptococcus mitis, inoculation amount 10^6 CFU/ml
Procedure: as §1, §2

K. pneumoniae SR1 = experiment: MIC by agar dilution method; format: cell-based; conditions: Klebsiella pneumoniae, K.pneumoniae R1, inoculation amount 10^6 CFU/ml
Procedure: as §1, §2

S. pneumoniae Type I = experiment: MIC by agar dilution method; format: cell-based; conditions: Streptococcus pneumoniae, inoculation amount 10^6 CFU/ml
Procedure: as §1, §2

P.aeruginosa SR24 = experiment: Treating effect on infections in mouse; format: in vivo; conditions: Pseudomonas aeruginosa, P.aeruginosa SR24 infection
S.aureus Smith = experiment: Treating effect on infections in mouse; format: in vivo; conditions: Staphylococcus aureus, S.aureus Smith infection
in vivo [2] = conditions: monkey
in vivo [3] = conditions: mouse
P.vulgaris GN-329 = experiment: Treating effect on infections in mouse; format: in vivo; conditions: Proteus vulgaris, GN329, P.vulgaris GN-329 infection

Compound	ED50 (S.pneumoniae Type I)	ED50 (P.aeruginosa E-2)	MIC (S. agalactiae ATCC13813)	MIC (S. pyogenes C-203)	MIC [1]	MIC (P. mirabilis PR-4)	MIC (P. vulgaris CN-329)	MIC (S. mitis ATCC9811)	MIC (K. pneumoniae SR1)	MIC (S. pneumoniae Type I)	ED50 (P.aeruginosa SR24)	ED50 (S.aureus Smith)	half-life (in vivo [2])	half-life (in vivo [3])	ED50 (P.vulgaris GN-329)
CO/N=C(\C(=O)NC1C(=O)N2C(C(=O)[O-])=C(Cn3cc[n+]4ncccc34)CSC12)c1nsc(N)n1 (centres unmarked) [Control compound (1)]	0.69 mg/kg	4.73 mg/kg	0.1 µg/mL (≈ 0.194 µM)	0.013 µg/mL (≈ 0.0252 µM)	0.78 µg/mL (≈ 1.51 µM)	0.1 µg/mL (≈ 0.194 µM)	0.1 µg/mL (≈ 0.194 µM)	0.1 µg/mL (≈ 0.194 µM)	0.05 µg/mL (≈ 0.097 µM)	0.05 µg/mL (≈ 0.097 µM)	1.52 mg/kg	0.76 mg/kg	76.8 min	23.4 min	0.81 mg/kg
N#CNC(=O)NCc1cc(-c2cc[n+](CC3=C(C(=O)[O-])N4C(=O)C(NC(=O)/C(=N\OCF)c5nsc(N)n5)C4SC3)cc2)c[nH]1 (centres unmarked) [I-1′]	–	–	0.025 µg/mL (≈ 0.0381 µM)	0.006 µg/mL (≈ 0.00915 µM)	0.2 µg/mL (≈ 0.305 µM)	0.013 µg/mL (≈ 0.0198 µM)	0.013 µg/mL (≈ 0.0198 µM)	0.05 µg/mL (≈ 0.0763 µM)	0.006 µg/mL (≈ 0.00915 µM)	0.013 µg/mL (≈ 0.0198 µM)	–	–	–	–	–
